Experimental data as given in patent publication US9403843B2, “Cysteine protease inhibitors and uses thereof” (The Trustees of Columbia University in the City of New York, priority 2012, dated 2016).
Where two headings read alike, the source gives them in different places.

Assays:
Cal I = test: Relative selectivity for Cal I (E64 = 1.0), Table 2; type: biochemical; conditions: relative to E64 = 1.0
full-length human Cal1 [1] = target: T1, full-length human Cal1 (Homo sapiens (Human), UniProt P07384); test: Calpain inhibition FRET assay; type: biochemical; conditions: Table 3, 20 min incubation, FRET substrate
primary neurons = test: LD50 in primary neurons; type: cell-based; conditions: YES = LD50 ≧ 50 μM in primary neurons
full-length human Cal1 [2] = target: T1, full-length human Cal1; test: Calpain inhibition FRET assay; type: biochemical
Experimental: Calpain activity was measured using full-length human Cal1 in the presence of a FRET substrate. IC50 values were approximated by co-incubation of varying concentrations of the appropriate inhibitor (10, 100, 500, 1000 nM) in the presence of the FRET substrate (DABCYL)TPLK-SPPSPR-(EDANS) (SEQ ID NO: 5) and activation buffer. […] A peptide inhibitor, Z-LLY-FMK (SEQ ID NO: 6), was used as a positive control.
The Calbiochem InnoZyme activity kit was used for measuring the inhibition effect inhibitors on human erythrocyte calpain 1 activity. […] 20 μM of the FRET substrate, 10 nM of native Cal1, and 20 μM TCEP (reducing agent) were added to the reaction mixture containing assay buffer (Tris [10 mM], NaCl [100 mM], pH 7.4). Cal1 was activated by the addition of 10 μM calcium. Cleavage of the scissile bond amide bond, K-S, releases the fluorophore (EDANS) from the internal quenching molecule (DABCYL), resulting in an increase in fluorescence measured at 320 nm excitation and 480 nm emission wave lengths for 30 min. Each inhibitor was added to the reaction mixture at varying concentrations (10 nM, 100 nM, 1 μM, and 10 μM) to detect inhibition of Cal1 and reduction in fluorescence was measured by 96 well-plate reader. Approximate IC50 values of each compound were generated using linear regression within Graphpad Prism Software.

papain = papain (Carica papaya (Papaya), UniProt P00784); test: biochemical; type: biochemical
Excerpt: (§1) Papain is representative of a family of typically lysosomal or secreted cysteine proteases, including the human cathepsins (B, C, F, H, K, L1-2, O, S, W, Z). […] Several methods have been reported in the literature for detailed kinetic analysis of the irreversible inhibition of cysteine proteases, including Cal1. […] (SEQ ID NO: 8). Using this substrate, kinetic parameters were derived using the method of Davies and co-workers, whereby “progress curves” were initially obtained measuring product formation as a function of time and fitted to y=P∞*(1−e^(−k*x)) (FIG. 7) (Cuerrier, D. et al., J Biol Chem 2007, 282, 9600-11; herein incorporated by reference in its entirety). […] Kinetic parameters (ki, KI, ki/KI) were obtained from double reciprocal plots (FIG. 7).
(§2) Full length porcine calpain (156 nM), or papain (236 pM) was added to a solution of 100 mM NaCl, 50 mM HEPES, pH 7.6, 1 mM TCEP, 30 μM Suc-LLVY-AMC (SEQ ID NO: 8) substrate, and inhibitor (0.5 to 50 μM). Calpain reactions also contained CaCl2 (1 mM and 100 mM for porcine and rat respectively). Both substrate and inhibitors were dissolved in acetonitrile/DMSO (1:1) with the exception of E-64, dissolved in water. Organic solvent remained <2% in all reactions, and most often <1%. Reactions were carried out in microtiter 96-well plates, with 150 μL per well, 30° C., and product formation was monitored over time by fluorescence (Ex/Em 346/444 nm, with 420 nm cutoff filter). Kinetic values of kobs were determined via non-linear regression using one-phase association analysis and linear plots of 1/kobs vs. 1/[I] provided kinetic constants ki and KI.

[3] = target: Full length porcine calpain (Sus scrofa (Pig), UniProt P35750); test: Calpain inhibition kinetics studies (Suc-LLVY-AMC substrate); type: biochemical
Excerpt: as §1, §2

APP/PS1 mice = test: Behavioral rescue assays (contextual fear memory, 2-day RAWM reference memory); type: in vivo
Excerpt: APP/PS1-vehicle: n=15; APP/PS1-67: n=6; APP/PS1-30a: n=10; WT-vehicle: n=15; WT-67=5; WT-30a: n=8, APP/PS1-33: n=11; WT-33: n=8, APP/PS1-50: n=10; WT-50: n=8. P<0.05 in all transgenic groups treated with compound compared to their respective vehicle-treated transgenics.
APP/PS1-vehicle: n=17; APP/PS1-67: n=9; APP/PS1-30a: n=10; WT-vehicle: n=18; WT-67=9; WT-30a: n=9, APP/PS1-33: n=10; WT-33: n=9, APP/PS1-50: n=11; WT-50: n=9.
The ability of compounds to rescue the defects in associative and reference memory in 3 month old APP/PS1 animals was assessed. Capability of ameliorating the defects in contextual fear memory was tested via i.p. administration (FIG. 12). In the 2-day RAWM test, daily injections of the 67, 30a, 33 and 50 from the 2nd month of age were beneficial against the loss of contextual fear memory and reference memory.
Impact of chronic treatment on against memory loss in older APP/PS1 mice (7 months of age) with a more severe plaque load was also investigated. Compounds 67, 33 and 50 were beneficial against memory impairment following chronic administration (FIG. 13).
The ability of a prodrug to rescue the defects in associative and reference memory in 3 month old APP/PS1 animals was assessed. […] Thus, the esterification seems to improve PK but it spoils PD parameters. Compound 89 ameliorates both LTP and memory in 3 month old APP/PS1 mice (FIG. 15). Daily treatment with 89 from the age of 2 months until 3 months ameliorated the defect in LTP (A) contextual fear memory (B) and reference memory (C) in APP/PS1 mice. n=10 for all groups. P<0.05 in transgenics treated with compound compared to their respective vehicle-treated transgenics.

[4] = tested on: calpain-generated spectrin fragments; test: Spectrin proteolytic degradation products in hippocampi, western blot; type: in vivo; conditions: for prevention of spectrin cleavage by calpains in hippocampi: i.p. treatment for 12 days, doses as for PK
Experimental: Studies were performed to determine capability of lowering levels of spectrin proteolytic degradation products in hippocampi from adult animals. Using western blot analysis, prevention of calpain-generated spectrin fragments was checked following i.p. treatment for 12 days with 30a, 33 and 50 at the same concentrations used for PK assessment. The array of vehicle samples was obtained by loading samples with 5, 10, 15, and 20 μg total protein/lane. Samples from compound treated animals were loaded at 15 μg/lane.

[5] = Plasma pharmacokinetics after i.p. administration; type: in vivo; conditions: ICR mice; for time of peak plasma concentration: i.p., 30a 7.57, 33 7.86, 50 7.83 mg/kg; for half-life / bioavailability: mouse, ip, plasma; for bioavailability: after i.p. administration, read-out: absolute bioavailability
Experimental: Plasma concentrations of 30a, 33 and 50 were determined by LC-MS/MS after i.p. administration to ICR mice. The plasma concentrations at each sampling time are shown on FIG. 10. […] Indeed, following i.p. administration of 30a (7.57 mg/kg), 33 (7.86 mg/kg) and 50 (7.83 mg/kg), the peak plasma concentration occurred at 0.25, 0.5 and 0.125 h after dosing, respectively. […] The respective half-lives were ˜0.6 hrs, ˜1.1 hrs and ˜0.6 hrs.

[6] = tested on: Aβ-induced LTP impairment; test: LTP rescue test; conditions: assessed at 650 nM
Experimental: Residual levels of potentiation were averaged during the last 5 min of LTP.

[7] = Acute and chronic toxicity, maximum tolerated dose; type: in vivo; conditions: mice; for MTD: mouse, in vivo, no malaise or death
Excerpt: For evaluation of acute and chronic toxicity we measured the maximum tolerated dose (MTD) in mice for 30a, 33 and 50.

Cal1cat vs CathB = test: Competition assay for Cal1 vs CathB using the biotinylated epoxide probe; type: binding, rat
Experimental: Anti-biotin western blotting of Cal1cat (Lane 6) or CathB (Lane 7) after incubation with 27 show the expected immunoreactivity of the covalently modified proteins. […] Densitometric analysis, using means from triplicate immunoblots, was used to estimate the modification of each protein by 27 in the presence of inhibitors relative to control (Lane 1: ratio=1.0).
Cal1cat was used in place of the full length enzyme to avoid autocatalysis.
Cal1cat and CathB were pre-treated with inhibitors for 10 min, followed by a 20 min incubation with the biotinylated epoxide, 27, as illustrated in FIG. 4. […] A more quantitative estimate of selectivity was achieved by comparison of band intensities.
The appropriate inhibitor (5 μM) was pre-incubated in a mixture containing Cal1cat (2 μM), CathB (2 μM), TCEP (1 mM), and Ca^2+ (30 μM) for 10 min at 37° C. […] (5 μM) was then added and the mixture incubated an additional 20 min. The reaction was quenched with EDTA (10 μM) and samples were ran using 4-16% SDS PAGE gel, subsequently transferred to PVDF membrane and visualized by Pierce ECL (Enhanced chemiluminescent) western blotting substrate, intensity of each blot was calculated using densitometry software. Relative inhibition of each enzyme was calculated with respect to enzyme activity in the absence of inhibitor. Inhibitor preference to Cal1cat with respect to CathB, was calculated by dividing relative Cal1cat inhibition with relative CathB inhibition of that particular inhibitor.

[8] = Table 2, approximate IC50, read-out: Cal I IC50
[9] = ki/Ki calculated relative to E-64
[10] = mean ± S.D. of triplicate experiments
[11] = 3 month old APP/PS1 mice, 2-day RAWM, daily from 2 months
[12] = 3 month old APP/PS1 mice, daily i.p. from 2 months
[13] = APP/PS1 mice, daily treatment from 2 until 7 months

T1 sequence (P07384 whole entry): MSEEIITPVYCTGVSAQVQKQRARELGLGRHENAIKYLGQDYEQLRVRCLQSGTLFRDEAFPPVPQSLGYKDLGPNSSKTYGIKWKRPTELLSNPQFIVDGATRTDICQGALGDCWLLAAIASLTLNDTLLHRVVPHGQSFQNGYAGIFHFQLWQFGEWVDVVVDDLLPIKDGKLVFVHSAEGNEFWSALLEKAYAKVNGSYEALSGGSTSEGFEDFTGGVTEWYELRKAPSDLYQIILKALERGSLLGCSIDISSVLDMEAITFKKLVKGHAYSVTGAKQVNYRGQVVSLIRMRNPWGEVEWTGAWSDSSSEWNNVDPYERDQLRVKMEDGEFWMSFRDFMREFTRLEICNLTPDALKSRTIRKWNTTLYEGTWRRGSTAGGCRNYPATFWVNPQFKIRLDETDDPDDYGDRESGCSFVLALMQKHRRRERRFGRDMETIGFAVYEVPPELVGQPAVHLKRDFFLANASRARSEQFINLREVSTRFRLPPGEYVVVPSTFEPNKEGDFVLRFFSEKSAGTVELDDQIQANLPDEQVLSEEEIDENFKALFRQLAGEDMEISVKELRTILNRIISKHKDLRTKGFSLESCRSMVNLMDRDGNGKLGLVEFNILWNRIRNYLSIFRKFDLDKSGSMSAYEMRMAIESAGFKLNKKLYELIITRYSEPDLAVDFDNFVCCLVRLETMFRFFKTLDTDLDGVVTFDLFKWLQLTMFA
T1 sequence (P04632 whole entry partner): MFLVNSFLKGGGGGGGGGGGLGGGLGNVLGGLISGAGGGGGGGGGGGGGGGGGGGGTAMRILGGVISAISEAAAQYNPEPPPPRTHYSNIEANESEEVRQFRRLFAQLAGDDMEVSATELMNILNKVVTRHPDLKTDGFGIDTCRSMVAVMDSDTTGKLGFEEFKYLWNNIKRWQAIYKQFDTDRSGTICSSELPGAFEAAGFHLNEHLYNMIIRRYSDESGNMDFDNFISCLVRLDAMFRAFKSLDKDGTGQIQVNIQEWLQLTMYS
Full length porcine calpain, sequence (P35750 whole entry): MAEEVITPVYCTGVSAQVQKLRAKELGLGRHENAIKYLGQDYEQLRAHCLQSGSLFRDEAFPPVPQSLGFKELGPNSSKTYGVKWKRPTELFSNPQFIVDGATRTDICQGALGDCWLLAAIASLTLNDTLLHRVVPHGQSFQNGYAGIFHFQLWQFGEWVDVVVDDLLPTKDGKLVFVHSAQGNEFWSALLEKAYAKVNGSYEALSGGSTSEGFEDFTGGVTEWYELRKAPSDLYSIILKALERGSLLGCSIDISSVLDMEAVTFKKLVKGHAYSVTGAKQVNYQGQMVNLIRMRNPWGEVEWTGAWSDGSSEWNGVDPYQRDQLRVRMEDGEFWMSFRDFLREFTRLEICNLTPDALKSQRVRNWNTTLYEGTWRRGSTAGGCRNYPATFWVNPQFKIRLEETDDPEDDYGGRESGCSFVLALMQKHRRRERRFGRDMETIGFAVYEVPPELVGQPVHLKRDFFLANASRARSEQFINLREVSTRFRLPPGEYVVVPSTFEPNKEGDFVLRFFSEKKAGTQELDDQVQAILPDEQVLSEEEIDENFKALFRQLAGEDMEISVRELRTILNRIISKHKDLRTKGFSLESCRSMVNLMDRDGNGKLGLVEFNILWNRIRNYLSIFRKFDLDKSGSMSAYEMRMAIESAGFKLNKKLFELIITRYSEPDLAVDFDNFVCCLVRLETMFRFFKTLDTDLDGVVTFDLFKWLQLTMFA
Full length porcine calpain, sequence (P04574 whole entry partner): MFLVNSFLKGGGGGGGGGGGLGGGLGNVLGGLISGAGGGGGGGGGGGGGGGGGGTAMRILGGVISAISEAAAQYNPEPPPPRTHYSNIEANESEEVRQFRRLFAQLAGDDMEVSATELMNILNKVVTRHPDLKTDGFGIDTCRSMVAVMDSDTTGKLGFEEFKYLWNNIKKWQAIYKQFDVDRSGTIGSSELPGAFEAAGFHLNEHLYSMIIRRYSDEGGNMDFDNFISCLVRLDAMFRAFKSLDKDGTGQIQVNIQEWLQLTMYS
papain, sequence (P00784 134-345): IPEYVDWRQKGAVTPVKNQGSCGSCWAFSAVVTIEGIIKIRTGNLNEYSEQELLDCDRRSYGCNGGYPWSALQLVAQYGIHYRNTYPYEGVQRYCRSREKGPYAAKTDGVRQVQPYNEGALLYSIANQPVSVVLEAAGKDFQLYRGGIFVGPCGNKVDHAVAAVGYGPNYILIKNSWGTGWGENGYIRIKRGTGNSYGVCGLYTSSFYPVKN

Row | Compound | Relative selectivity for Cal I E64 = 1.0 (Cal I) | IC50 (full-length human Cal1 [1]) | LD50 ≧ 50 μM primary neurons (primary neurons) | IC50 (full-length human Cal1 [2]; [8]) | reference memory (APP/PS1 mice; [11]) | contextual fear memory (APP/PS1 mice; [12]) | contextual fear memory (APP/PS1 mice; [13]) | reference memory (APP/PS1 mice; [13]) | prevention of spectrin cleavage by calpains in hippocampi [4] | time of peak plasma concentration [5] | half-life [5] | bioavailability [5] | MTD [7] | further results
1 | CC(C)C[C@H](NC(=O)[C@H]1O[C@@H]1C(=O)O)C(=O)NCCCCNC(=O)CCCCC1CCSS1 (stereo partly drawn) [Compound 26, (2S,3S)-3-((2S)-1-(4-(5-(1,2-dithiolan-3-yl)pentanamido)butylamino)-4-methyl-1-oxopentan-2-ylcarbamoyl)oxirane-2-carboxylic acid] | 1.6 | 0.1 µM | YES | 0.15 µM | – | – | – | – | – | – | – | – | – | –
2 | O=C(NCc1cn(-c2ccc(F)cc2)nn1)[C@H](Cc1cscn1)NC(=O)[C@H]1O[C@@H]1C(=O)O [Compound 50, (2S,3S)-3-((S)-1-((1-(4-fluorophenyl)-1H-1,2,3-triazol-4-yl)methylamino)-1-oxo-3-(thiazol-4-yl)propan-2-ylcarbamoyl)oxirane-2-carboxylic acid] | – | 0.1 µM | – | 0.125 µM | beneficial | beneficial | ameliorated | ameliorated | dramatically reduced the amount of fragments | 0.125 h | ~36 min | 41.3% | 200 mg/kg | Ki (papain; apparent equilibrium constant, read-out: K1 Papain): 19.2 µM; ki Papain (papain; inhibition rate): 12.7 s⁻¹; rel Papain (papain; [9]): 0.12; 10^−5 × ki/Ki Papain (papain; [10]): 6.62 ± 0.74; Relative Selectivity ([3]; Cal1 over papain, ki/Ki relative to E-64 set at 1.0): 9.3; Ki ([3]; apparent equilibrium constant, full length Cal1, read-out: K1 Calpain1): 2.9 µM; ki Calpain1 ([3]; inhibition rate, full length Cal1): 0.10 s⁻¹; relative selectivity for inhibition of Cal1 over papain (in words) ([3]; ki/Ki as measure, compared with E-64): Cal1 selectivity; rel Calpain1 [3, 9]: 1.1; 10^−4 × ki/Ki Calpain1 [3, 10]: 3.31 ± 0.32; memory impairment (APP/PS1 mice; 7 month old APP/PS1 mice, chronic administration): beneficial; brain penetration ([4]; inferred from hippocampal spectrin cleavage): capable of effectively penetrating the brain; potency for LTP rescue compared with E64 [6]: surpassed E64; Cal1 inhibition (in words) (full-length human Cal1 [2]): potent activity
3 | CC(=O)NCCCCNC(=O)[C@H](CC(C)C)NC(=O)C1OC1c1ccccc1 (some centres unmarked) [Compound 61] | 0.3 | – | YES | ~1 µM | – | – | – | – | – | – | – | – | – | –
4 | O=C(Nc1nc(-c2ccc(F)cc2)cs1)C(Cc1cnc[nH]1)NC(=O)[C@H]1O[C@@H]1C(=O)O (stereo partly drawn) [Compound 30a, (2S,3S)-3-(1-(4-(4-fluorophenyl)thiazol-2-ylamino)-3-(1H-imidazol-4-yl)-1-oxopropan-2-ylcarbamoyl)oxirane-2-carboxylic acid] | – | – | – | 0.1 µM | beneficial | beneficial | ameliorated | ameliorated | less efficient at preventing the spectrin cleavage | 0.25 h | ~36 min | 80.4% | 100 mg/kg | blocking of active site modification by probe 27 (western blot signal) (Cal1cat vs CathB; 10 min pre-treatment, then 20 min with 27): little change in the CathB signal; selectivity for Cal1cat (ratio of Cal1cat versus CathB band intensities) (Cal1cat vs CathB; ratio for probe 27 alone set as 1.0, inhibitor 5 μM): highest selectivity; IC50 (full-length human Cal1 [2]; Cal1, values stated in text, read-out: IC50): ~0.1 µM; chronic toxicity, histopathology ([7]; chronic treatment at MTD): nephrotoxicity was noticed
5 | CC(C)C[C@H](NC(=O)[C@H]1O[C@@H]1C(=O)O)C(=O)NCCCCNS(=O)(=O)c1ccc(F)cc1 [Compound 25, (2S,3S)-3-((S)-1-(4-(4-fluorophenylsulfonamido)butylamino)-4-methyl-1-oxopentan-2-ylcarbamoyl)oxirane-2-carboxylic acid] | 0.9 | 0.15 µM | YES | 0.1 µM | – | – | – | – | – | – | – | – | – | –
